Values quoted from earlier work as cited in US20050129762A1, “Extended release pharmaceutical dosage form” (Wyeth, priority 2003, published 2005).
Where a name gives a salt, the structure may show the parent alone.

Conditions: plural daily dosing regimen, immediate release tablets

Vomiting, share of patients: about seventeen
nausea, share of patients under treatment: about forty five
SMILES: COc1ccc(C(CN(C)C)C2(O)CCCCC2)cc1 (centres unmarked) [venlafaxine hydrochloride, 1-[2-(dimethylamino)-1-(4-methoxyphenyl)ethyl]-cyclohexanol]
